System: BT-474
Assay: normalised response (% of control), CellTiter-Glo; higher = more viable cells (100 = DMSO, 0 = benzethonium chloride kill control)
Conditions: incubation time: 72 h
Protocol: (§1)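 DSRT, 72 h incubation, CellTox Green / CellTiter-Glo readout. Signal is normalised to DMSO and benzethonium chloride controls. Value is the normalised response at dose 3.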

SMILES	normalised response [%]
C[C@@H]1CCN(C(=O)CC#N)C[C@@H]1N(C)c1ncnc2[nH]ccc12 [Tofacitinib] (50 nM)	102
COc1cccc2c1C(=O)c1c(O)c3c(c(O)c1C2=O)C[C@@](O)(C(C)=O)C[C@@H]3O[C@H]1C[C@H](N)[C@H](O)[C@H](C)O1 [Daunorubicin] (10 nM)	102

System: HCC1937
Assay: as above
Conditions: incubation time: 72 h
Protocol: as §1

SMILES	normalised response [%]
CN1CCN(c2ccc3nc(-c4c(N)c5c(F)cccc5[nH]c4=O)[nH]c3c2)CC1 [Dovitinib] (100 nM)	94.8
COc1ccc(C2=N[C@@H](c3ccc(Cl)cc3)[C@@H](c3ccc(Cl)cc3)N2C(=O)N2CCNC(=O)C2)c(OC(C)C)c1 [Nutlin-3] (100 nM)	95.4
FC(F)c1nc2ccccc2n1-c1nc(N2CCOCC2)nc(N2CCOCC2)n1 [ZSTK474] (100 nM)	87.7
CS(=O)(=O)OCCCCOS(C)(=O)=O [Busulfan] (1000 nM)	96.2
COC(=O)C[C@](O)(CCCC(C)(C)O)C(=O)O[C@@H]1C(OC)=C[C@]23CCCN2CCc2cc4c(cc2[C@H]13)OCO4 [Omacetaxine] (100 nM)	41.1
Cn1cnc2c(F)c(Nc3ccc(Br)cc3F)c(C(=O)NOCCO)cc21 [MEK-162] (10 nM)	90.8
C[C@@H]1CCN(C(=O)CC#N)C[C@@H]1N(C)c1ncnc2[nH]ccc12 [Tofacitinib] (50 nM)	96.5
COc1cccc2c1C(=O)c1c(O)c3c(c(O)c1C2=O)C[C@@](O)(C(C)=O)C[C@@H]3O[C@H]1C[C@H](N)[C@H](O)[C@H](C)O1 [Daunorubicin] (10 nM)	93.2

System: MDA-MB-231
Assay: as above
Conditions: incubation time: 72 h
Protocol: as §1

SMILES	normalised response [%]
CN1CCN(c2ccc3nc(-c4c(N)c5c(F)cccc5[nH]c4=O)[nH]c3c2)CC1 [Dovitinib] (100 nM)	92.4
COc1ccc(C2=N[C@@H](c3ccc(Cl)cc3)[C@@H](c3ccc(Cl)cc3)N2C(=O)N2CCNC(=O)C2)c(OC(C)C)c1 [Nutlin-3] (100 nM)	102
FC(F)c1nc2ccccc2n1-c1nc(N2CCOCC2)nc(N2CCOCC2)n1 [ZSTK474] (100 nM)	91.1
CS(=O)(=O)OCCCCOS(C)(=O)=O [Busulfan] (1000 nM)	105
COC(=O)C[C@](O)(CCCC(C)(C)O)C(=O)O[C@@H]1C(OC)=C[C@]23CCCN2CCc2cc4c(cc2[C@H]13)OCO4 [Omacetaxine] (100 nM)	65
Cn1cnc2c(F)c(Nc3ccc(Br)cc3F)c(C(=O)NOCCO)cc21 [MEK-162] (10 nM)	99.3
C[C@@H]1CCN(C(=O)CC#N)C[C@@H]1N(C)c1ncnc2[nH]ccc12 [Tofacitinib] (50 nM)	104
COc1cccc2c1C(=O)c1c(O)c3c(c(O)c1C2=O)C[C@@](O)(C(C)=O)C[C@@H]3O[C@H]1C[C@H](N)[C@H](O)[C@H](C)O1 [Daunorubicin] (10 nM)	103

System: BT-549
Assay: as above
Conditions: incubation time: 72 h
Protocol: as §1

SMILES	normalised response [%]
CN1CCN(c2ccc3nc(-c4c(N)c5c(F)cccc5[nH]c4=O)[nH]c3c2)CC1 [Dovitinib] (100 nM)	103
COc1ccc(C2=N[C@@H](c3ccc(Cl)cc3)[C@@H](c3ccc(Cl)cc3)N2C(=O)N2CCNC(=O)C2)c(OC(C)C)c1 [Nutlin-3] (100 nM)	107
FC(F)c1nc2ccccc2n1-c1nc(N2CCOCC2)nc(N2CCOCC2)n1 [ZSTK474] (100 nM)	80.4
CS(=O)(=O)OCCCCOS(C)(=O)=O [Busulfan] (1000 nM)	109
COC(=O)C[C@](O)(CCCC(C)(C)O)C(=O)O[C@@H]1C(OC)=C[C@]23CCCN2CCc2cc4c(cc2[C@H]13)OCO4 [Omacetaxine] (100 nM)	18.8
Cn1cnc2c(F)c(Nc3ccc(Br)cc3F)c(C(=O)NOCCO)cc21 [MEK-162] (10 nM)	94.5
C[C@@H]1CCN(C(=O)CC#N)C[C@@H]1N(C)c1ncnc2[nH]ccc12 [Tofacitinib] (50 nM)	104
COc1cccc2c1C(=O)c1c(O)c3c(c(O)c1C2=O)C[C@@](O)(C(C)=O)C[C@@H]3O[C@H]1C[C@H](N)[C@H](O)[C@H](C)O1 [Daunorubicin] (10 nM)	103

System: HCC1143
Assay: as above
Conditions: incubation time: 72 h
Protocol: as §1

SMILES	normalised response [%]
CN1CCN(c2ccc3nc(-c4c(N)c5c(F)cccc5[nH]c4=O)[nH]c3c2)CC1 [Dovitinib] (100 nM)	103
COc1ccc(C2=N[C@@H](c3ccc(Cl)cc3)[C@@H](c3ccc(Cl)cc3)N2C(=O)N2CCNC(=O)C2)c(OC(C)C)c1 [Nutlin-3] (100 nM)	105
FC(F)c1nc2ccccc2n1-c1nc(N2CCOCC2)nc(N2CCOCC2)n1 [ZSTK474] (100 nM)	99.9
CS(=O)(=O)OCCCCOS(C)(=O)=O [Busulfan] (1000 nM)	105
COC(=O)C[C@](O)(CCCC(C)(C)O)C(=O)O[C@@H]1C(OC)=C[C@]23CCCN2CCc2cc4c(cc2[C@H]13)OCO4 [Omacetaxine] (100 nM)	44.4
Cn1cnc2c(F)c(Nc3ccc(Br)cc3F)c(C(=O)NOCCO)cc21 [MEK-162] (10 nM)	94.8
C[C@@H]1CCN(C(=O)CC#N)C[C@@H]1N(C)c1ncnc2[nH]ccc12 [Tofacitinib] (50 nM)	106
COc1cccc2c1C(=O)c1c(O)c3c(c(O)c1C2=O)C[C@@](O)(C(C)=O)C[C@@H]3O[C@H]1C[C@H](N)[C@H](O)[C@H](C)O1 [Daunorubicin] (10 nM)	97

System: MDA-MB-436
Assay: as above
Conditions: incubation time: 72 h
Protocol: as §1

SMILES	normalised response [%]
CN1CCN(c2ccc3nc(-c4c(N)c5c(F)cccc5[nH]c4=O)[nH]c3c2)CC1 [Dovitinib] (100 nM)	96.5
COc1ccc(C2=N[C@@H](c3ccc(Cl)cc3)[C@@H](c3ccc(Cl)cc3)N2C(=O)N2CCNC(=O)C2)c(OC(C)C)c1 [Nutlin-3] (100 nM)	102
FC(F)c1nc2ccccc2n1-c1nc(N2CCOCC2)nc(N2CCOCC2)n1 [ZSTK474] (100 nM)	88.5
CS(=O)(=O)OCCCCOS(C)(=O)=O [Busulfan] (1000 nM)	94.2
COC(=O)C[C@](O)(CCCC(C)(C)O)C(=O)O[C@@H]1C(OC)=C[C@]23CCCN2CCc2cc4c(cc2[C@H]13)OCO4 [Omacetaxine] (100 nM)	20
Cn1cnc2c(F)c(Nc3ccc(Br)cc3F)c(C(=O)NOCCO)cc21 [MEK-162] (10 nM)	103
C[C@@H]1CCN(C(=O)CC#N)C[C@@H]1N(C)c1ncnc2[nH]ccc12 [Tofacitinib] (50 nM)	98.7
COc1cccc2c1C(=O)c1c(O)c3c(c(O)c1C2=O)C[C@@](O)(C(C)=O)C[C@@H]3O[C@H]1C[C@H](N)[C@H](O)[C@H](C)O1 [Daunorubicin] (10 nM)	99.4

System: HCC1599
Assay: as above
Conditions: incubation time: 72 h
Protocol: as §1

SMILES	normalised response [%]
CN1CCN(c2ccc3nc(-c4c(N)c5c(F)cccc5[nH]c4=O)[nH]c3c2)CC1 [Dovitinib] (100 nM)	94.2
COc1ccc(C2=N[C@@H](c3ccc(Cl)cc3)[C@@H](c3ccc(Cl)cc3)N2C(=O)N2CCNC(=O)C2)c(OC(C)C)c1 [Nutlin-3] (100 nM)	105
FC(F)c1nc2ccccc2n1-c1nc(N2CCOCC2)nc(N2CCOCC2)n1 [ZSTK474] (100 nM)	98
CS(=O)(=O)OCCCCOS(C)(=O)=O [Busulfan] (1000 nM)	98.9
COC(=O)C[C@](O)(CCCC(C)(C)O)C(=O)O[C@@H]1C(OC)=C[C@]23CCCN2CCc2cc4c(cc2[C@H]13)OCO4 [Omacetaxine] (100 nM)	24.4
Cn1cnc2c(F)c(Nc3ccc(Br)cc3F)c(C(=O)NOCCO)cc21 [MEK-162] (10 nM)	93.8
C[C@@H]1CCN(C(=O)CC#N)C[C@@H]1N(C)c1ncnc2[nH]ccc12 [Tofacitinib] (50 nM)	105
COc1cccc2c1C(=O)c1c(O)c3c(c(O)c1C2=O)C[C@@](O)(C(C)=O)C[C@@H]3O[C@H]1C[C@H](N)[C@H](O)[C@H](C)O1 [Daunorubicin] (10 nM)	99.1

System: MCF-10A
Assay: as above
Conditions: incubation time: 72 h
Protocol: as §1

SMILES	normalised response [%]
CN1CCN(c2ccc3nc(-c4c(N)c5c(F)cccc5[nH]c4=O)[nH]c3c2)CC1 [Dovitinib] (100 nM)	99.1
COc1ccc(C2=N[C@@H](c3ccc(Cl)cc3)[C@@H](c3ccc(Cl)cc3)N2C(=O)N2CCNC(=O)C2)c(OC(C)C)c1 [Nutlin-3] (100 nM)	96.7
FC(F)c1nc2ccccc2n1-c1nc(N2CCOCC2)nc(N2CCOCC2)n1 [ZSTK474] (100 nM)	93
CS(=O)(=O)OCCCCOS(C)(=O)=O [Busulfan] (1000 nM)	108
COC(=O)C[C@](O)(CCCC(C)(C)O)C(=O)O[C@@H]1C(OC)=C[C@]23CCCN2CCc2cc4c(cc2[C@H]13)OCO4 [Omacetaxine] (100 nM)	61.5
Cn1cnc2c(F)c(Nc3ccc(Br)cc3F)c(C(=O)NOCCO)cc21 [MEK-162] (10 nM)	70.8
C[C@@H]1CCN(C(=O)CC#N)C[C@@H]1N(C)c1ncnc2[nH]ccc12 [Tofacitinib] (50 nM)	101
COc1cccc2c1C(=O)c1c(O)c3c(c(O)c1C2=O)C[C@@](O)(C(C)=O)C[C@@H]3O[C@H]1C[C@H](N)[C@H](O)[C@H](C)O1 [Daunorubicin] (10 nM)	105

System: DU-4475
Assay: as above
Conditions: incubation time: 72 h
Protocol: as §1

SMILES	normalised response [%]
CN1CCN(c2ccc3nc(-c4c(N)c5c(F)cccc5[nH]c4=O)[nH]c3c2)CC1 [Dovitinib] (100 nM)	97.1
COc1ccc(C2=N[C@@H](c3ccc(Cl)cc3)[C@@H](c3ccc(Cl)cc3)N2C(=O)N2CCNC(=O)C2)c(OC(C)C)c1 [Nutlin-3] (100 nM)	104
FC(F)c1nc2ccccc2n1-c1nc(N2CCOCC2)nc(N2CCOCC2)n1 [ZSTK474] (100 nM)	97
CS(=O)(=O)OCCCCOS(C)(=O)=O [Busulfan] (1000 nM)	108
COC(=O)C[C@](O)(CCCC(C)(C)O)C(=O)O[C@@H]1C(OC)=C[C@]23CCCN2CCc2cc4c(cc2[C@H]13)OCO4 [Omacetaxine] (100 nM)	4.3
Cn1cnc2c(F)c(Nc3ccc(Br)cc3F)c(C(=O)NOCCO)cc21 [MEK-162] (10 nM)	92.9
C[C@@H]1CCN(C(=O)CC#N)C[C@@H]1N(C)c1ncnc2[nH]ccc12 [Tofacitinib] (50 nM)	106
COc1cccc2c1C(=O)c1c(O)c3c(c(O)c1C2=O)C[C@@](O)(C(C)=O)C[C@@H]3O[C@H]1C[C@H](N)[C@H](O)[C@H](C)O1 [Daunorubicin] (10 nM)	106

System: Hs578T
Assay: as above
Conditions: incubation time: 72 h
Protocol: as §1

SMILES	normalised response [%]
CN1CCN(c2ccc3nc(-c4c(N)c5c(F)cccc5[nH]c4=O)[nH]c3c2)CC1 [Dovitinib] (100 nM)	101
COc1ccc(C2=N[C@@H](c3ccc(Cl)cc3)[C@@H](c3ccc(Cl)cc3)N2C(=O)N2CCNC(=O)C2)c(OC(C)C)c1 [Nutlin-3] (100 nM)	103
FC(F)c1nc2ccccc2n1-c1nc(N2CCOCC2)nc(N2CCOCC2)n1 [ZSTK474] (100 nM)	92.4
CS(=O)(=O)OCCCCOS(C)(=O)=O [Busulfan] (1000 nM)	108
COC(=O)C[C@](O)(CCCC(C)(C)O)C(=O)O[C@@H]1C(OC)=C[C@]23CCCN2CCc2cc4c(cc2[C@H]13)OCO4 [Omacetaxine] (100 nM)	28.2
Cn1cnc2c(F)c(Nc3ccc(Br)cc3F)c(C(=O)NOCCO)cc21 [MEK-162] (10 nM)	90.5
C[C@@H]1CCN(C(=O)CC#N)C[C@@H]1N(C)c1ncnc2[nH]ccc12 [Tofacitinib] (50 nM)	109
COc1cccc2c1C(=O)c1c(O)c3c(c(O)c1C2=O)C[C@@](O)(C(C)=O)C[C@@H]3O[C@H]1C[C@H](N)[C@H](O)[C@H](C)O1 [Daunorubicin] (10 nM)	104

— the supplement of paper PMC4862054
